In patent US20250154145A1, “OXER1 ANTAGONISTS AND USES THEREOF” (Fairhaven Pharmaceuticals Ins., priority 2021, published 2025):

Key:
neutrophils = assay: Neutrophil calcium flux assay (5-OXO-ETE-stimulated, Indo-1 fluorescence); format: cell-based; conditions: Neutrophil, 5-OXO-ETE-stimulated calcium flux
Procedure, shortened: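 Indo-1-loaded neutrophils (5×10^6 cells/ml, 30 min at 37 °C) in HBSS with Ca/Mg and HEPES, pre-incubated 5 min with antagonist or buffer. Stimulated with 5-OXO-ETE added at 200 nM (4× stock); fluorescence (ex 331/em 410 nm) read every 5 s for 30 cycles, expressed as net fluorescence.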

Human OXER1 = biological target: T1, Human OXER1 (Homo sapiens, UniProt Q8TDS5); assay: BRET early endosome trafficking assay (OXER1-Rluc8 / rGFP-FYVE in HEK293 cells); format: cell-based; conditions: HEK293 cells transfected with OXER1-Rluc8 and rGFP-FYVE, 5-oxo-ETE agonist
T1 construct: host or cells: HEK293 cells, transient transfection
T1 sequence (Q8TDS5 whole entry): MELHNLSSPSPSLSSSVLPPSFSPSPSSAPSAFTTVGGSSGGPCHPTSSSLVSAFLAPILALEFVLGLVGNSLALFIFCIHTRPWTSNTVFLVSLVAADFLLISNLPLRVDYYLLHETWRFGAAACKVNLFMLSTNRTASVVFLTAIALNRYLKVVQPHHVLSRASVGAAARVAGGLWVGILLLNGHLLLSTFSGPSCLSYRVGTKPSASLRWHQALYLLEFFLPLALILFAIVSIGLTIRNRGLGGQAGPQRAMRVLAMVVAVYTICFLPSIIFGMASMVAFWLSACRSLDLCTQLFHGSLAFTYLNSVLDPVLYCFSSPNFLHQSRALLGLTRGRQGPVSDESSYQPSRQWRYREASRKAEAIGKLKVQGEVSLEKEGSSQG
Description: Background—The following assay can be used for determination of OXER1 activation in living HEK293 cells. Signalling functions of GPCRs are tightly regulated by endocytosis, the targeting of receptors to endosomes and their sorting to lysosomes or recycling to the plasma membrane. The early endosomes (EEs) trafficking assay (Namkung et al., Monitoring G protein-coupled receptor and β-arrestin trafficking in live cells using enhanced bystander BRET, Nat Commun 2016, 7: 12178) uses Rluc8-tagged OXER1 and Renilla GFP (rGFP) attached to the FYVE domain from human endofin/zinc finger FYVE domain-containing protein 16, which binds phosphatidylinositol 3-phosphate in EEs. Agonist stimulation of OXER1-Rluc8 leads to trafficking of the receptor to EEs, and ensuing increase of the donor concentration relative to the rGFP-FYVE acceptor anchored in the same cellular compartment, and thus results in an increase in BRET signal.
Plasmids—Human OXER1 VersaClone cDNA was obtained from R&D Systems. Rluc8 (A55T, C124A, S130A, K136R, A143M, M185V, M253L, and S287L variant of theRenilla renformis luciferase) gBlocks gene fragment (Integrated DNA Technologies, IA) was inserted with linker in frame at the C-terminus of OXER1. The FYVE domain from human endofin (residues Q739 to K806) attached in frame at the C terminus of a humanized Renilla GFP (rGFP), were synthesized as gBlocks gene fragments.
Bioluminescence Resonance Energy Transfer (BRET) Measurement—HEK293 cells were transfected with OXER1-Rluc8 and rGFP-FYVE. The following day, transiently transfected cells were seeded in 96-well white clear bottom microplates coated with poly-D-lysine and left in culture for 24 hours. Cells were washed once with Tyrode's buffer (140 mmol/L NaCl, 1 mmol/L CaCl2, 2.7 mmol/L KCl, 0.49 mmol/L MgCl2, 0.37 mmol/L NaH2PO4, 5.6 mmol/L glucose, 12 mmol/L NaHCO3, and 25 mmol/L HEPES, pH 7.5) before performing assays in Tyrode's buffer. Test compounds were incubated with cells for 15 minutes at 37° C. before addition of […] of the OXER1 agonist 5-oxo-6E,8Z,1IZ,14Z-eicosatetraenoic acid (5-oxo-ETE) for 45 minutes at 37° C. The Rluc8 substrate coelenterazine 400A (Prolume, Lakeside, AZ) was added at a final concentration of […] and BRET readings were collected using a Spark or Infinite M1000 microplate reader (Tecan, Morrisville, NC). BRET^2 readings between Rluc8 and rGFP were collected by sequential integration of the signals detected in the 370 to 450 nm (Rluc8) and 510 to 540 nm (rGFP) windows. The BRET signal was calculated as the ratio of light emitted by acceptor (rGFP) over the light emitted by donor (Rluc8). Ligand-promoted net BRET values were calculated by subtracting vehicle-induced net BRET from ligand-induced net BRET.

Row | SMILES | IC50 (neutrophils) [nM] | IC50 (Human OXER1) [nM]
1 | C[C@H](CC(=O)O)CC(=O)c1c(CCCCOCc2cccc(Cl)c2)n(C)c2ccc(C#N)cc12 [Compound I-180] | < 100 | < 100
2 | C[C@@H](CC(=O)O)CC(=O)c1c(CCCCCCc2ccccc2)n(C)c2ccc(Cl)cc12 [Compound I-8] | > 300 | > 300
3 | C[C@H](CC(=O)O)CC(=O)c1c(CCCCOCc2cccc(Cl)c2)n(C)c2ncc(Cl)cc12 [Compound I-83] | < 100 | 100 to 300
4 | C[C@H](CC(=O)NS(C)(=O)=O)CC(=O)c1c(CCCCCCc2cccc(Cl)c2)n(C)c2ccc(Cl)cc12 [Compound I-14] | 100 to 300 | 100 to 300
5 | CCCCCCc1c(C(=O)C[C@H](C)CC(=O)O)c2cc(Cl)ccc2n1C [Compound I-11] | 100 to 300 | 100 to 300
6 | C[C@H](CC(=O)O)CC(=O)c1c(CCCCCCc2cccc(Cl)c2)n(C)c2ccc(C#N)cc12 [Compound I-98] | < 100 | < 100
7 | CC(C)CCOCc1c(C(=O)C[C@H](C)CC(=O)O)c2cc(Cl)ccc2n1C [Compound I-73] | > 300 | > 300
8 | C[C@H](CC(=O)O)CC(=O)c1c(CCCCCC(=O)c2cccc(Cl)c2)n(C)c2ccc(Cl)cc12 [Compound I-45] | 100 to 300 | 100 to 300
9 | C[C@@H](CC(=O)O)CC(=O)c1c([C@H](O)CCCCCc2cccc(Cl)c2)n(C)c2ccc(Cl)cc12 [Compound I-6] | > 300 | > 300
10 | C[C@H](CC(=O)O)CC(=O)c1c(CCCCCCc2ccc(O)c(Cl)c2)n(C)c2ccc(Cl)cc12 [Compound I-48] | < 100 | < 100
11 | C[C@@H](CC(=O)O)CC(=O)c1c(CCCCCCc2cccc(Cl)c2)n(C)c2ccc(Cl)cc12 [Compound I-1] | > 300 | 100 to 300
12 | C[C@H](CC(=O)O)CC(=O)c1c(CCCCCC(F)c2cccc(Cl)c2)n(C)c2ccc(Cl)cc12 (some centres unmarked) [Compound I-47] | < 100 | < 100
13 | C[C@@H](CC(=O)O)CC(=O)c1c([C@@H](O)CCCCCc2cccc(Cl)c2)n(C)c2ccc(Cl)cc12 [Compound I-4] | > 300 | > 300
14 | C[C@H](CC(=O)O)CC(=O)c1c(CCCCCCc2cccc(Cl)c2)sc2ccc(Cl)cc12 [Compound I-23] | 100 to 300 | < 100
15 | CONC(=O)C[C@@H](C)CC(=O)c1c(CCCCCCc2cccc(Cl)c2)n(C)c2ccc(Cl)cc12 [Compound I-19] | > 300 | > 300
16 | C[C@H](CC(=O)O)CC(=O)c1c(CCCCCCc2cccc(F)c2)n(C)c2ccc(Cl)cc12 [Compound I-9] | < 100 | < 100
17 | C[C@H](CC(=O)O)CC(=O)c1c(CCCCCCc2cccc(Cl)c2)n(C)c2ccc(Cl)cc12 [Compound I-2] | < 100 | < 100
18 | C[C@H](CC(=O)O)CC(=O)c1c(CCCCCCc2ccccc2)n(C)c2ccc(Cl)cc12 [Compound I-7] | < 100 | < 100
19 | C[C@H](CC(=O)O)CC(=O)c1c([C@H](O)CCCCCc2cccc(Cl)c2)n(C)c2ccc(Cl)cc12 [Compound I-5] | > 300 | > 300
